# Target: PI3Kα H1047R (Homo sapiens, UniProt P42336, H1047R)
# Assay: ADP-Glo assay
# Format: biochemical
# Conditions: 2 nM H1047R enzyme; 1 hour incubation with compound at room temperature; ATPase reaction 100 min
# Protocol: Compounds were plated using acoustic liquid dispensing on the Echo 655T by transferring 50 nL/well compound DMSO solution from an Echo source plate to a 384-well assay plate to generate a 10-point dose response curve with a top final concentration of […], 1:3 serial dilution down; the same volume of DMSO was dispensed to wells designated as positive and negative controls. On the day of the assay, a 2X enzyme solution in the assay buffer (50 mM Tris, 150 mM NaCl, 0.01% Brij35, 15 mM MgCl2, 0.05% Tween-20, and 1 mM DTT) was prepared. The enzyme concentrations used were: 20 nM for wild-type, 2 nM for H1047R and H1047L, and 10 nM for H1047Y proteins. 2.5 µL/well of 2X enzyme solution was dispensed into the assay plates and the enzyme was incubated with the test compound at room temperature for 1 hour; the same volume of assay buffer without enzyme was dispensed to wells designated as positive controls. At the end of the incubation, 2.5 µL/well of 2X ATP solution in assay buffer was dispensed to initiate the ATPase reaction and incubated at room temperature for 100 min. Reactions were terminated and ADP production measured using the ADP-Glo kit following instructions from the manufacturer.
# The IC50(nM) ranges are as follows: A denotes <200 nM; B denotes 200 nM≤IC50<500 nM; C denotes ≥500 nM. ND denotes value not determined with that assay for the specified compound.
# Sequence of PI3Kα H1047R (P42336 whole entry H1047R): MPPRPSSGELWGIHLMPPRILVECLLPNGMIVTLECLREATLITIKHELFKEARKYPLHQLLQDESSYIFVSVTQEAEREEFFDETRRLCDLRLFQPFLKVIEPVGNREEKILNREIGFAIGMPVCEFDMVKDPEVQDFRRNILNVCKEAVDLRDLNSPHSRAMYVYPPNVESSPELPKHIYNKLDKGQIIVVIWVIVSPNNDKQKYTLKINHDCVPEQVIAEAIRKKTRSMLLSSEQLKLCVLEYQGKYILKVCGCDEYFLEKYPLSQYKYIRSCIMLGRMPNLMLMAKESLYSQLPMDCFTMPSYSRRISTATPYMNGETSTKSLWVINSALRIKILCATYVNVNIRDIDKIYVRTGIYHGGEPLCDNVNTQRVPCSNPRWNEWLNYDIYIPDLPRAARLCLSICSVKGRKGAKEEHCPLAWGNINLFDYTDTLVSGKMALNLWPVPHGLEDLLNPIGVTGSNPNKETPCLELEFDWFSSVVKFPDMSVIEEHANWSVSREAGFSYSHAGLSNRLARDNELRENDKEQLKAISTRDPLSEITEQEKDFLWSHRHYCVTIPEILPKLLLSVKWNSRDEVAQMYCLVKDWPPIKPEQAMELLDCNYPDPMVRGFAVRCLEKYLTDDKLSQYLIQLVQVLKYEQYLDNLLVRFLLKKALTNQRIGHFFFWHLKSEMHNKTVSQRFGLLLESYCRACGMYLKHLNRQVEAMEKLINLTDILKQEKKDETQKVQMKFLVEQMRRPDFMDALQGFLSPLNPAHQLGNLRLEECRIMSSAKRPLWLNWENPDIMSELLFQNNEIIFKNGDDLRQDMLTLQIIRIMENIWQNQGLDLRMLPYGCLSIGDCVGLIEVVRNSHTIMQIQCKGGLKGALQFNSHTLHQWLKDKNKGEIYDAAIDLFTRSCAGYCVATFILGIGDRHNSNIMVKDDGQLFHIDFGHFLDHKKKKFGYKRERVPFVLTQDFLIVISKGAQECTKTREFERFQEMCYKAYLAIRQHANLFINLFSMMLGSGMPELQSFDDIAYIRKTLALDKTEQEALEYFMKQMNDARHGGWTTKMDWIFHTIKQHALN
# Sequence of PI3Kα H1047R (P27986 whole entry partner): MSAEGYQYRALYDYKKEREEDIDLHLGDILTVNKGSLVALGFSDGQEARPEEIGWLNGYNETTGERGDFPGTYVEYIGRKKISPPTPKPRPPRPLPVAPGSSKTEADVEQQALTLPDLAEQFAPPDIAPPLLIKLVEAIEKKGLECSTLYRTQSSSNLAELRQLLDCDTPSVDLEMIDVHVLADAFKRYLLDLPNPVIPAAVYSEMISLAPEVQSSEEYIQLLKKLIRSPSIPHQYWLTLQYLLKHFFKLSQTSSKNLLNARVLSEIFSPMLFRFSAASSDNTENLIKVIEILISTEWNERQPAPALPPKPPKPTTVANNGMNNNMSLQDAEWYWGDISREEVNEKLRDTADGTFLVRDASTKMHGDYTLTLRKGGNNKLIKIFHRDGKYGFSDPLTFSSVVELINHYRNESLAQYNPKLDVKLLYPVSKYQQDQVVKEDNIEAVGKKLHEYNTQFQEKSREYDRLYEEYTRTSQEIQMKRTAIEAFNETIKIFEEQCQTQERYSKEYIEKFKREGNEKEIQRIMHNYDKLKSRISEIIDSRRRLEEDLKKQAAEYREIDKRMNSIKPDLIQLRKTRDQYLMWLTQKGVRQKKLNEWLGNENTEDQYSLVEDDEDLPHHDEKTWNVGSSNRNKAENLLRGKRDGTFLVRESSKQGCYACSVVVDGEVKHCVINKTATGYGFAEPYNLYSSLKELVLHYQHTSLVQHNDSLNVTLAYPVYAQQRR
row,SMILES,IC50
1,Cc1c([C@@H](NC(=O)Nc2cnc(N)nc2)C(F)(F)F)nn2ccccc12 (racemic) [Compound 5],≥ 500 nM
2,"Cn1c(C(NC(=O)Nc2cnc(N)nc2)C(F)(F)F)cc2ccc(F)cc21 (stereo not shown) [Compound 1, 1-(2-aminopyrimidin-5-yl)-3-[2,2,2-trifluoro-1-(6-fluoro-1-methylindol-2-yl)ethyl]urea]",< 200 nM
3,"CC(C)C(NC(=O)Nc1cnc(N)nc1)c1cc2ccc(F)cc2n1C (stereo not shown) [Compound 2, 1-(2-aminopyrimidin-5-yl)-3-[1-(6-fluoro-1-methylindol-2-yl)-2-methylpropyl]urea]",< 200 nM
4,"Cc1c([C@@H](NC(=O)Nc2cnc(N)nc2)C(F)(F)F)n(C)c2c(F)cc(F)cc12 [Compound 3, 1-(2-aminopyrimidin-5-yl)-3-[(1R)-1-(5,7-difluoro-1,3-dimethylindol-2-yl)-2,2,2-trifluoroethyl]ureas]",200 to 500 nM
5,Cn1c([C@@H](NC(=O)Nc2cnc(N)nc2)C(F)(F)F)nc2c(F)cc(F)cc21 (racemic) [Compound 7],< 200 nM

# Next, values leading:
row,IC50,SMILES
1,≥ 500 nM,Cc1c([C@@H](NC(=O)Nc2cnc(N)nc2)C(F)(F)F)nc2ccc(F)cn12 (racemic) [Compound 11]
2,< 200 nM,Cn1c([C@@H](NC(=O)Nc2cnc(N)nc2)C(F)(F)F)cc2c(F)cc(F)cc21 (racemic) [Compound 9]
